Here are results for five compounds from patent US11633459B2, “GIP derivatives and uses thereof” (priority 2018, dated 2023).

The target in one data set is T1, human GIP receptor (Homo sapiens, UniProt P48546).
T1 construct: expressed in transfected cells; host or cells: BHK cells (parent line BHKTS13), clone BHK CRE luc2P hGIPR clone #5
T1 sequence (P48546 22-466): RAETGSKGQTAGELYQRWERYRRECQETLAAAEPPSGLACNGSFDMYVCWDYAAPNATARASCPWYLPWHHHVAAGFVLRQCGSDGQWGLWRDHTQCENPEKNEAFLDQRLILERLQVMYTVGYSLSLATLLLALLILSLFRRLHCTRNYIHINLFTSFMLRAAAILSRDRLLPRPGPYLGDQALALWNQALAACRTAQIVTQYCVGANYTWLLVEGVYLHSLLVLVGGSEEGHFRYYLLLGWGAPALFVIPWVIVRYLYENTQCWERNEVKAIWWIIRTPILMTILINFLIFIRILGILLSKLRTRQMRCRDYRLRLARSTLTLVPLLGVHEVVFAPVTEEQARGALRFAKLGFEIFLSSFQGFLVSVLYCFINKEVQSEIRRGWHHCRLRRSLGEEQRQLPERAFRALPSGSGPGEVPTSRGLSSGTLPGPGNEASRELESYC
The experiment in a line: In vitro potency, CRE luciferase reporter gene assay, whole BHK cells expressing human GIP receptor. It counts as cell-based. Conditions: 0.2% HSA. Here is the method:
In Vitro Potency (CRE Luciferase; Whole Cells)
The in vitro potency is the measure of human GIP, GLP-1 or glucagon receptor activation, respectively, in a whole cell assay.
In vitro potency was determined by measuring the response of the human GIP, GLP-1 or glucagon receptor in a reporter gene assay in individual cell lines. […] When the respective receptor is activated it results in the production of cAMP, which in turn results in the luciferase protein being expressed. When assay incubation is completed the luciferase substrate (luciferin) is added and the enzyme converts luciferin to oxyluciferin to produce bioluminescence. The luminescence is measured as the readout for the assay.
The cells were derived from a clone containing the CRE luciferase element and were established by further transfection with the respective receptor to obtain the current clone.
The cells were cultured at 5% CO2 in Cell Culture Medium. They were aliquoted and stored in liquid nitrogen. The cells were kept in passage and were seeded out the day before each assay.
The Assay Buffer consisted of 1% ovalbumin and 0.1% Pluronic F-68 in Assay Medium with the addition of human serum albumin at twice the indicated concentrations.
1) Cells were plated at 5000 cells/well and incubated overnight.
2) Cells were washed three times in PBS.
3) Assay Medium (50 μl aliquot) with or without serum albumin was added to each well in the assay plate.
4) Stocks of the test compounds and reference compounds were diluted to a concentration of 0.2 μM in Assay Buffer. […] 8) The cells were washed three times with PBS plus some liquid in each well. 9) A 100 μl aliquot of steadylite plus reagent was added to each well of the assay plate (reagent was light sensitive). 10) Each assay plate was covered with aluminum foil to protect it from light and shaken for 30 min at room temperature. 11) Each assay plate was read in a microtiter plate reader. Calculations and Results
The data from the microtiter plate reader was transferred to GraphPad Prism software. The software performs a non-linear regression (log(agonist) vs response).
A minimum of two replicates was measured for each sample. The reported values are averages of the replicates.

The next data set is described as follows: in vivo. Conditions: female, Göttingen, minipig, iv, 5 nmol/kg.
Data set [1] is described as follows: Chemical stability: HMWP formation by SEC-MS. The following applies: 250 μM, pH 7.4, 37° C., 4 weeks. It counts as physicochemical. Here is the method: The aim of this study is to determine the chemical stability of GIP derivative compositions. As a measure of stability of the GIP derivative composition, the formation of high molecular weight peptide formation (% HMWP) as a function of time was analysed by size-exclusion chromatography (SEC-MS). Further, the purity loss of the GIP derivative compositions was measured by LCMS. Samples for chemical stability assays were freshly prepared before each assay. […] The pH of the sample was adjusted to the desired value using appropriate amounts of concentrated NaOH and HCl. […] Formation of covalent oligomers (HMWPs) was analysed and identified by a SEC-MS method. […] The LC system was coupled to both a TUV detector operated at 215 nm, 10 Hz and a high resolution QToF mass spectrometer from Waters (Synapt G2S) operated in positive ion mode and m/z range of 100 to 4000 with normal resolution setting. Lock mass correction against Leu-Enkephalin was done every 31 sec. Spectra were processed in MassLynx version 4.1 and MaxEnt deconvoluted.

Data set [2] is described as follows: Dynamic Light Scattering Stability Index (DLS-SI). It counts as physicochemical. Conditions: concentration only 5 μM instead of 250 μM, pH 7.4, 25° C.
A short description of data set [3]: Sub-chronic in vivo study in DIO mice: IPGTT (intraperitoneal glucose tolerance test). The arrangement: species or system DIO male C57BL/6J mice. Conditions: Tables 6-8, compound 47 2 nmol/kg, GIP derivatives 30 nmol/kg. An excerpt: (§1) The purpose of this example is to assess the in vivo effect of the GIP derivatives of the present invention alone and in combination with a GLP-1 receptor agonist on food intake, body weight, and glucose tolerance in diet-induced obese (DIO) mice. The GLP-1 receptor agonist used for this example was a semaglutide-like molecule that has the same pharmacological properties as semaglutide, but a slightly different structure. The compound may be synthesised using methods known in the art, e.g. as described by methods of present Example 1 or as described in WO 2006/097537, example 4.
(§2) The animals were treated once daily with the GLP-1 receptor agonist (compound no. 47) and/or a GIP derivative of the present invention exemplified by compound no.'s 5, 25 and 31, to assess weight loss, efficacy and glucose tolerance. Animals and Diet
All animal protocols were approved by an Institutional Animal Care and Use Committee and Ethical Review Committee of Novo Nordisk. […]
On the day of the glucose tolerance test (day 15), animals were fasted for 4 h. […] Tail blood glucose levels were measured and mice were injected (t=0) with an intra-peritoneal (i.p.) glucose load of 2 g/kg (200 mg/ml glucose solution, dose volume 10 ml/kg). Tail blood glucose levels were measured at times 0, 15, 30, 60, 90, 120 minutes following the i.p. glucose load. […]

The nature of data set [4]: Sub-chronic in vivo study in DIO mice: food intake and body weight. Details: species or system DIO male C57BL/6J mice. The following applies: Tables 6-8, compound 47 2 nmol/kg, GIP derivatives 30 nmol/kg.
From the text: as §1, §2
All animal protocols were approved by an Institutional Animal Care and Use Committee and Ethical Review Committee of Novo Nordisk. Animals were housed according to Novo Nordisk rodent housing standards, and were given ad libitum access to food and water under controlled lighting (12 h:12 h light/dark cycle; lights off 18:00-06:00), temperature (23±2° C.) and relative humidity (50±20%) conditions. […]
Body weight (BW) and food intake were measured immediately prior to dosing each day. […]

`CCCC[C@H](NC(=O)[C@H](C)NC(=O)[C@@H](NC(=O)[C@H](CO)NC(=O)[C@H](Cc1ccc(O)cc1)NC(=O)[C@H](CC(=O)O)NC(=O)[C@H](CO)NC(=O)[C@@H](NC(=O)[C@H](Cc1ccccc1)NC(=O)[C@@H](NC(=O)CNC(=O)[C@H](CCC(=O)O)NC(=O)C(C)(C)NC(=O)[C@@H](Cc1ccc(O)cc1)NC(C)=O)[C@@H](C)O)[C@@H](C)CC)[C@@H](C)CC)C(=O)N[C@@H](CC(=O)O)C(=O)N[C@@H](CCCCN)C(=O)N[C@H](C(=O)N[C@@H](CCCNC(=N)N)C(=O)N[C@@H](CCC(N)=O)C(=O)N[C@@H](CCC(N)=O)C(=O)N[C@@H](CC(=O)O)C(=O)N[C@@H](Cc1ccccc1)C(=O)N[C@H](C(=O)N[C@@H](CCCCNC(=O)CC[C@H](NC(=O)CC[C@H](NC(=O)CC[C@H](NC(=O)CCCCCCCCCCCCCCCCC(=O)O)C(=O)O)C(=O)O)C(=O)O)C(=O)N[C@@H](Cc1c[nH]c2ccccc12)C(=O)N[C@@H](CC(C)C)C(=O)N[C@@H](CC(C)C)C(=O)N[C@@H](C)C(=O)N[C@@H](CCC(N)=O)C(=O)N[C@@H](CCCCN)C(=O)NCC(=O)O)C(C)C)[C@@H](C)CC` [Compound 5, N{1}-acetyl, N{Epsilon-24}-[(4S)-4-carboxy-4-[[(4S)-4-carboxy-4-[[(4S)-4-carboxy-4-(17-carboxyheptadecanoylamino)butanoyl]amino]butanoyl]amino]butanoyl]-[D-Tyr1,Aib2,Nle14,Arg18,Lys24]-hGIP(1-31)] displayed an EC50 on human GIP receptor of 0.0209 nM. This compound also had a half-life in “in vivo” of 79 h.
Regarding `CC[C@H](C)[C@H](NC(=O)[C@H](CO)NC(=O)[C@H](Cc1ccc(O)cc1)NC(=O)[C@H](CC(=O)O)NC(=O)[C@H](CO)NC(=O)[C@@H](NC(=O)[C@H](Cc1ccccc1)NC(=O)[C@@H](NC(=O)CNC(=O)[C@H](CCC(=O)O)NC(=O)[C@H](C)NC(=O)[C@@H](N)Cc1ccc(O)cc1)[C@@H](C)O)[C@@H](C)CC)C(=O)N[C@@H](C)C(=O)N[C@@H](CCSC)C(=O)N[C@@H](CC(=O)O)C(=O)N[C@@H](CCCCN)C(=O)N[C@H](C(=O)N[C@@H](Cc1c[nH]cn1)C(=O)N[C@@H](CCC(N)=O)C(=O)N[C@@H](CCC(N)=O)C(=O)N[C@@H](CC(=O)O)C(=O)N[C@@H](Cc1ccccc1)C(=O)N[C@H](C(=O)N[C@@H](CC(N)=O)C(=O)N[C@@H](Cc1c[nH]c2ccccc12)C(=O)N[C@@H](CC(C)C)C(=O)N[C@@H](CC(C)C)C(=O)N[C@@H](C)C(=O)N[C@@H](CCC(N)=O)C(=O)N[C@@H](CCCCN)C(=O)NCC(=O)O)C(C)C)[C@@H](C)CC` [hGIP(1-31)], the “HMWP formation (%/month)” value in data set [1] was 0.15 %/month. In addition, the DLS-SI precipitates result in data set [2] is given as “formation of large aggregates became visible as precipitation”.
Consider `CC[C@H](C)[C@H](NC(=O)[C@H](CO)NC(=O)[C@H](Cc1ccc(O)cc1)NC(=O)[C@H](CC(=O)O)NC(=O)[C@H](CO)NC(=O)[C@@H](NC(=O)[C@H](Cc1ccccc1)NC(=O)[C@@H](NC(=O)CNC(=O)[C@H](CCC(=O)O)NC(=O)[C@H](C)NC(=O)[C@@H](N)Cc1ccc(O)cc1)[C@@H](C)O)[C@@H](C)CC)C(=O)N[C@@H](C)C(=O)N[C@@H](CCSC)C(=O)N[C@@H](CC(=O)O)C(=O)N[C@@H](CCCCN)C(=O)N[C@H](C(=O)N[C@@H](Cc1c[nH]cn1)C(=O)N[C@@H](CCC(N)=O)C(=O)N[C@@H](CCC(N)=O)C(=O)N[C@@H](CC(=O)O)C(=O)N[C@@H](Cc1ccccc1)C(=O)N[C@H](C(=O)N[C@@H](CC(N)=O)C(=O)N[C@@H](Cc1c[nH]c2ccccc12)C(=O)N[C@@H](CC(C)C)C(=O)N[C@@H](CC(C)C)C(=O)N[C@@H](C)C(=O)N[C@@H](CCC(N)=O)C(=O)N[C@@H](CCCCN)C(=O)NCC(=O)N[C@@H](CCCCN)C(=O)N[C@@H](CCCCN)C(=O)N[C@@H](CC(N)=O)C(=O)N[C@@H](CC(=O)O)C(=O)N[C@@H](Cc1c[nH]c2ccccc12)C(=O)N[C@@H](CCCCN)C(=O)N[C@@H](Cc1c[nH]cn1)C(=O)N[C@@H](CC(N)=O)C(=O)N[C@H](C(=O)N[C@H](C(=O)N[C@@H](CCC(N)=O)C(=O)O)[C@@H](C)O)[C@@H](C)CC)C(C)C)[C@@H](C)CC` [hGIP(1-42)], for which the “HMWP formation (%/month)” value in data set [1] amounted to 2.0 %/month.
Take “N^6,26-{18-[N-(17-carboxyheptadecanoyl)-D-γ-glutamyl]-10-oxo-3,6,12,15-tetraoxa-9,18-diazaoctadecanoyl}-[8-(2-amino-2-propanoic acid), 34-L-arginine]human glucagon-like peptide 1(7-37) [Compound 47, reference compound]”: the “effect on glucose tolerance (in words)” value in data set [3] is “improvement in glucose tolerance”. The “effect on food intake and body weight (in words)” value in data set [4] is given as “induced a reduction in food intake that resulted in body weight loss”.
In the same order, the values of “N{1}-acetyl,N{Epsilon-24}-[(4S)-4-carboxy-4-[[(4S)-4-carboxy-4-[[(4S)-4-carboxy-4-[[4-[(19-carboxynonadecanoylamino)methyl]cyclohexanecarbonyl]amino]butanoyl]-amino]butanoyl]amino]butanoyl]-[D-Tyr1,Nle14,Arg18,Aib20,Lys24]-hGIP(1-31) [Compound 25]” are “improved glucose tolerance” and “minor effect on food intake”.
